For test [1], the target named is T1, DYRK1A (Homo sapiens (Human), UniProt Q13627). To be noted: cited from earlier work.
Test [2] deals with T1, DYRK1A. The test is described as follows: DYRK1A Inhibition Assay. The format is biochemical. As to conditions: DYRK1A 1 nM, ATP 20 μM, Ser/Thr 18 peptide 2 μM, 90 minutes, read-out: DYRK1 IC50. Here is the method:
DYRK1A—Invitrogen #PV4105
• Ser/Thr 18 peptide—Invitrogen #PR8227U • Phos-Ser/Thr 18 peptide—Invitrogen #PR8229U • Assay plate—PerkinElmer #6007279 • ATP—Sigma #A7699-5G • Development reagent A—Invitrogen #PR5194B • Development buffer—Invitrogen #PR4876B Compound preparation • 1. Test compounds were diluted to 1 mM in DMSO • 2. Stock was further diluted 3-fold using Echo platform • 3. 100 nL of DMSO into Columns 1 and 24 and 100 nL of compounds dilutions to Columns 2-23 in a plate.
• 1. Add 5 μL enzyme & substrate mixture to each well in Column 2-23 and A24-H24 wells of the 384-well assay plate; • 2. Add 5 μL 0% Phosphorylation control to A1-H1 and I24-P24 wells of the assay plate; • 3. Add 5 μL 100% Phosphorylation control to I1-P1 wells of the assay plate; • 4. Spin the assay plate (1000 rpm, 1 minute @23° C.); • 5. Incubate enzyme with compounds for 15 minutes at 23° C.; • 6. Add 5 μL ATP solution to each well of the assay plate; • 7. Spin the plate (1000 rpm, 1 minute @23° C.); • 8. Incubate the assay plate for 90 minutes at 23° C.; • 9. Add 10 μL Development reagent A to each well of the assay plate; • 10. Centrifuge the plate at 1000 rpm about 15 seconds and seal a film over assay plate. Incubate the assay plate for 30 minutes at 23° C. • 11. Read assay plates on Envision (see Tables A-D).
Final Compound Concentrations
• Assay buffer: 50 mM Hepes pH7.5, 10 mM MgCl2, 1 mM EDTA, 0.01% Brij-35 • DYRK1A: 1 nM • ATP: 20 μM • Ser/Thr 18 peptide: 2 μM • Reaction time: 90 minutes

Like-named read-outs stand apart in the source and are kept apart here.

Consider `O=C(O[C@@H]1Cc2c(O)cc(O)cc2O[C@@H]1c1cc(O)c(O)c(O)c1)c1cc(O)c(O)c(O)c1` [EGCG, Epigallocatechin gallate], for which the “mode of DYRK1A inhibition” value at DYRK1A [1] was “non-ATP competitive DYRK1A inhibitor”. Turning to `c1nc2c(ncc3ccc(-c4cncs4)cc32)[nH]1` [Compound 77], the half-inhibitory concentration (IC50) on DYRK1A [2] (Compounds of Formula (I)) was not above 10 nM. With `Cn1cc(-c2ccc3cnc4c(c3c2)c([C@H]2CC[C@@H](C(=O)O)CC2)cn4C)cn1` [Compound 46, 4-(3-methyl-8-(1-methyl-1H-pyrazol-4-yl)-3H-pyrrolo[2,3-c]isoquinolin-1-yl)cyclohexane-1-carboxylic acid], at DYRK1A [2] (Compounds of Formula (I)), the concentration for half-maximal inhibition (IC50) lay within 10 to 100 nM. Regarding `O=C(O)C1CC(c2c[nH]c3ncc4ccncc4c23)C1` (stereo not shown) [Compound 35, 3-(7H-pyrrolo[2,3-c][2,6]naphthyridin-9-yl)cyclobutane-1-carboxylic acid], the IC50 on DYRK1A [2] (Compounds of Formula (I)) was 100 to 1000 nM. For the compound `O=c1oc2cc3cnccc3cc2n1CCc1nc2ccccc2[nH]1` [Compound 4], the IC50 at DYRK1A [2] (Compounds of Formula (IV)) was 1000 to 5000 nM. For the compound `Cc1c(-c2cccc(C(=O)O)c2)[nH]c2ncc3ccncc3c12` [Compound 52, 3-(9-methyl-7H-pyrrolo[2,3-c][2,6]naphthyridin-8-yl)benzoic acid], at DYRK1A [2] (Compounds of Formula (I)), the concentration for half-maximal inhibition (IC50) lay within 100 to 1000 nM. Still for that read-out and setting: next, `O=C(O)[C@H]1C[C@H](c2c[nH]c3ncc4ccccc4c32)C1` [Compound 33, (1r,3r)-3-(3H-pyrrolo[2,3-c]isoquinolin-1-yl)cyclobutane-1-carboxylic acid]: 100 to 1000 nM.

As a reminder, the IC50 is the point on the concentration scale where inhibition reaches its midpoint.

Values taken from patent US20250066349A1 (Prothena Biosciences Limited, priority 2021, published 2025).
